A value given as a limit tells only on which side of the number the result lay.

Chain of PCAF719-832 bromodomain (Q92831 719-832): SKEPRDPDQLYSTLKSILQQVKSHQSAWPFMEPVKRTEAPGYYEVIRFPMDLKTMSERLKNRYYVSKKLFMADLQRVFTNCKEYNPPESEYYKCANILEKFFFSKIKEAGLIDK

This test concerns the target PCAF719-832 bromodomain (Homo sapiens (Human), UniProt Q92831). Kind of test: PCAF AlphaLisa binding assay. To be noted: PCAF bromodomain 225 nM, biotinylated small molecule ligand 6 nM. Background: In Alpha technology, singlet oxygen from a donor bead excites a nearby acceptor bead.
Description: PCAF bromodomain binding and inhibition of the compounds disclosed herein was assessed by monitoring the engagement of biotinylated small molecule ligand (known to bind to the PCAF bromodomain) with the target using the AlphaLisa technology (Perkin-Elmer).
One may read the IC50 as the concentration that gives 50% inhibition. As to `CN(C)CCNc1nn(C)c(=O)c2cccc(F)c12` [Example 5, 4-((2-(dimethylamino)ethyl)amino)-5-fluoro-2-methylphthalazin-1(2H)-one], the IC50 is 0.13 µM.

Turning to `C[C@H](Nc1nn(C)c(=O)c2cccnc12)[C@H](c1ccc(C(=O)N2CCOCC2)cc1)N(C)C` [Example 82, 8-(((1S,2S)-1-(dimethylamino)-1-(4-(morpholine-4-carbonyl)phenyl)propan-2-yl)amino)-6-methylpyrido[2,3-d]pyridazin-5(6H)-one], the IC50 stood at 0.059 µM.

Take `CN(C)CCNc1nn(C)c(=O)c2cccnc12` [Example 2, 8-((2-(dimethylamino)ethyl)amino)-6-methylpyrido[2,3-d]pyridazin-5(6H)-one]: the IC50 was 0.14 µM.

On to `Cn1nc(NCCN2CCCC2)c2ccccc2c1=O` [Example 24, 2-methyl-4-((2-(pyrrolidin-1-yl)ethyl)amino)phthalazin-1(2H)-one], for which the IC50 was 0.92 µM. This IC50 is about 6.6-fold higher than that of the compound before.

Compound `CC(C)OC(=O)c1ccc([C@@H]([C@H](C)Nc2nn(C)c(=O)c3cccnc23)N(C)C)cc1` [Example 86, Isopropyl 4-((1S,2S)-1-(dimethylamino)-2-((6-methyl-5-oxo-5,6-dihydropyrido[2,3-d]pyridazin-8-yl)amino)propyl)benzoate] showed an IC50 of 0.03 µM.

`CC[C@H](Nc1nn(C)c(=O)c2ccccc12)[C@H](c1ccccc1)N(C)C` (single isomer, unassigned) [Example 56] had an IC50 of 0.041 µM.

Compound `CC(C)Oc1ccc([C@@H]([C@H](C)Nc2nn(C)c(=O)c3ccccc23)N(C)C)cc1` (single isomer, unassigned) [Example 59] came in with an IC50 of 0.033 µM. This IC50 and that of the compound before are within 1.5-fold of each other.

`CN(C)C(CNc1nn(C)c(=O)c2ccccc12)c1ccc(Cl)cc1` (racemic) [Example 27, 4-((2-(4-chlorophenyl)-2-(dimethylamino)ethyl)amino)-2-methylphthalazin-1(2H)-one] returned an IC50 of 0.12 µM.

Regarding `CN(C)[C@H](CNc1nn(C)c(=O)c2cccnc12)c1ccccc1` [Example 1A, (S)-8-((2-(dimethylamino)-2-phenylethyl)amino)-6-methylpyrido[2,3-d]pyridazin-5(6H)-one], the IC50 amounted to 0.045 µM.

`CN(C)C(CNc1nn(C)c(=O)c2ccccc12)c1ccccc1F` (racemic) [Example 26, 4-((2-(dimethylamino)-2-(2-fluorophenyl)ethyl)amino)-2-methylphthalazin-1(2H)-one] had an IC50 of 0.11 µM.

On to `COc1ccc([C@@H]([C@H](C)Nc2nn(C)c(=O)c3ccccc23)N(C)C)cc1` (single isomer, unassigned) [Example 79], for which the IC50 came to 0.073 µM.

For the compound `CN(C)C(CNc1nn(C)c(=O)c2ccccc12)c1ccccc1` (racemic) [Example 22, 4-((2-(dimethylamino)-2-phenylethyl)amino)-2-methylphthalazin-1(2H)-one], the IC50 was determined as 0.14 µM.

With `Cn1nc(N[C@@H]2CCCC[C@@H]2N)c2ncccc2c1=O` (single isomer, unassigned) [Example 14A], the IC50 is more than 5 µM.

In turn, `C[C@H](Nc1nn(C)c(=O)c2ccccc12)[C@H](c1ccccn1)N(C)C` (single isomer, unassigned) [Example 60] had an IC50 of 0.021 µM.

`CN(CCNc1nn(C)c(=O)c2ccccc12)C1COC1` [Example 51, 2-methyl-4-((2-(methyl(oxetan-3-yl)amino)ethyl)amino)phthalazin-1(2H)-one] came in with an IC50 of 0.8 µM.

Take `C[C@H](Nc1nn(C)c(=O)c2cccnc12)[C@H](c1ccc(Oc2ccccc2)cc1)N(C)C` (single isomer, unassigned) [Example 64]: the IC50 turned out to be 0.29 µM.

The compound `C[C@@H](Nc1nn(C)c(=O)c2cccnc12)[C@@H](c1ccc(S(=O)(=O)c2ccccc2)cc1)N(C)C` (single isomer, unassigned) [Example 74B] had an IC50 of 2.3 µM.

The compound `CC[C@H](Nc1nn(C)c(=O)c2cccnc12)[C@H](c1ccccc1)N(C)C` (single isomer, unassigned) [Example 58] yielded an IC50 of 0.04 µM. This IC50 is about 57-fold lower than that of the compound before.

For the compound `CN(C)C(CNc1nn(C)c(=O)c2ccccc12)c1ccc(F)cc1` (racemic) [Example 20, 4-((2-(dimethylamino)-2-(4-fluorophenyl)ethyl)amino)-2-methylphthalazin-1(2H)-one], the IC50 was determined as 0.11 µM.

`Cn1nc(NCCN2CCCCC2)c2ccccc2c1=O` [Example 41, 2-methyl-4-((2-(piperidin-1-yl)ethyl)amino)phthalazin-1(2H)-one] gave an IC50 of 2.2 µM.

In turn, `CC[C@@H](CNc1nn(C)c(=O)c2ccccc12)N(C)C` (single isomer, unassigned) [Example 39A] showed an IC50 of 0.55 µM.

Take `CC(Nc1nn(C)c(=O)c2cccnc12)C(c1ccc(S(=O)(=O)c2ccccc2)cc1)N(C)C` (single isomer, unassigned) [Example 74, 8-((1-(dimethylamino)-1-(4-(phenylsulfonyl)phenyl)propan-2-yl)amino)-6-methylpyrido[2,3-d]pyridazin-5(6H)-one]: the IC50 turned out to be 0.04 µM.

`C[C@H](CNc1nn(C)c(=O)c2cccnc12)N(C)C` (single isomer, unassigned) [Example 7B] returned an IC50 of 0.072 µM.

In turn, `C[C@H](Nc1nn(C)c(=O)c2cccnc12)[C@H](c1ccc(S(=O)(=O)c2ccccc2)cc1)N(C)C` (single isomer, unassigned) [Example 74A] returned an IC50 of 0.02 µM.

The compound `CN1CCN(CCNc2nn(C)c(=O)c3ccccc23)CC1` [Example 42, 2-methyl-4-((2-(4-methylpiperazin-1-yl)ethyl)amino)phthalazin-1(2H)-one] had an IC50 of 9.6 µM.

Compound `CCn1nc(N[C@@H](C)CN(C)C)c2ccccc2c1=O` (single isomer, unassigned) [Example 17B] came in with an IC50 of 0.28 µM. Compared with the last compound, the IC50 is about 34-fold lower.

The compound `C[C@H](Nc1nn(C)c(=O)c2ccccc12)[C@H](c1ccc(=O)[nH]c1)N(C)C` [Example 88, 4-(((1S,2S)-1-(dimethylamino)-1-(6-oxo-1,6-dihydropyridin-3-yl)propan-2-yl)amino)-2-methylphthalazin-1(2H)-one] yielded an IC50 of 0.08 µM.

The compound `CN(C)[C@@H]1c2ccccc2C[C@@H]1Nc1nn(C)c(=O)c2cccnc12` [Example 46A, 8-(((1R,2S)-1-(dimethylamino)-2,3-dihydro-1H-inden-2-yl)amino)-6-methylpyrido[2,3-d]pyridazin-5(6H)-one] registered a concentration for half-maximal inhibition (IC50) of 4.8 µM. Against the preceding compound, the IC50 is about 60-fold higher.

In turn, `C[C@H](Nc1nn(C)c(=O)c2ccccc12)[C@H](c1ccc(O)cc1)N(C)C` [Example 76, 4-(((1S,2S)-1-(dimethylamino)-1-(4-hydroxyphenyl)propan-2-yl)amino)-2-methylphthalazin-1(2H)-one] showed an IC50 of 0.042 µM.

`C[C@H](Nc1nn(C)c(=O)c2ccccc12)[C@H](c1ccccc1)N(C)C` (single isomer, unassigned) [Example 73A] returned an IC50 of 0.023 µM.

`COc1ccc2c(NCCN(C)C)nn(C)c(=O)c2c1` [Example 4, 4-((2-(dimethylamino)ethyl)amino)-7-methoxy-2-methylphthalazin-1(2H)-one] displayed an IC50 of 0.47 µM. Against the preceding compound, the IC50 is about 20-fold higher.

The compound `CC(CN(C)C)Nc1nn(C)c(=O)c2ccncc12` (racemic) [Example 12, 4-((1-(dimethylamino)propan-2-yl)amino)-2-methylpyrido[3,4-d]pyridazin-1(2H)-one] gave an IC50 of 0.22 µM. This IC50 lies about 2.1-fold lower than the previous one.

`CN(C)CCSc1nn(C)c(=O)c2ccccc12` [Example 9, 4-((2-(dimethylamino)ethyl)thio)-2-methylphthalazin-1(2H)-one] yielded an IC50 of 0.89 µM.

Consider `CN(C)[C@@H]1c2ccccc2C[C@@H]1Nc1nn(C)c(=O)c2ccccc12` [Example 47A, 4-(((1R,2S)-1-(dimethylamino)-2,3-dihydro-1H-inden-2-yl)amino)-2-methylphthalazin-1(2H)-one], for which the IC50 is 2.7 µM.

`C[C@H](Nc1nn(C)c(=O)c2[nH]ccc12)[C@H](c1ccccc1)N(C)C` (single isomer, unassigned) [Example 71A]: the IC50 was more than 5 µM.

For the compound `CN(C)C(CNc1nn(C)c(=O)c2c1CCCC2)c1ccccc1` (racemic) [Example 36, 4-((2-(dimethylamino)-2-phenylethyl)amino)-2-methyl-5,6,7,8-tetrahydrophthalazin-1(2H)-one], the IC50 worked out at 0.82 µM.

As for `CN(C)[C@H]1CCCC[C@H]1Nc1nn(C)c(=O)c2cccnc12` (single isomer, unassigned) [Example 15A], the IC50 turned out to be 0.078 µM.

For the compound `COc1ccc2c(=O)n(C)nc(NCCN(C)C)c2c1` [Example 3, 4-((2-(dimethylamino)ethyl)amino)-6-methoxy-2-methylphthalazin-1(2H)-one], the IC50 is 0.41 µM.

The compound `CN(C)[C@@H]1CCCC[C@@H]1Nc1nn(C)c(=O)c2cccnc12` (single isomer, unassigned) [Example 15B] returned an IC50 of 1.5 µM. Against the preceding compound, the IC50 is about 3.7-fold higher.

Turning to `CN(C)C(CNc1nn(C)c(=O)c2cccnc12)c1ccccc1` (stereo not drawn) [Example 1, 8-((2-(dimethylamino)-2-phenylethyl)amino)-6-methylpyrido[2,3-d]pyridazin-5(6H)-one], the IC50 was 0.086 µM. This IC50 lies about 17-fold lower than the previous one.

The compound `C[C@@H](CNc1nn(C)c(=O)c2cccnc12)N(C)C` (single isomer, unassigned) [Example 7A] displayed an IC50 of 0.86 µM. This IC50 is about 10-fold higher than that of the compound before.

For the compound `CCN(CC)CCNc1nn(C)c(=O)c2ccccc12` [Example 23, 4-((2-(diethylamino)ethyl)amino)-2-methylphthalazin-1(2H)-one], the IC50 amounted to 2.4 µM.

In turn, `CC(Nc1nn(C)c(=O)c2cccnc12)C(c1cn(C)nn1)N(C)C` (single isomer, unassigned) [Example 75, 8-((1-(dimethylamino)-1-(1-methyl-1H-1,2,3-triazol-4-yl)propan-2-yl)amino)-6-methylpyrido[2,3-d]pyridazin-5(6H)-one] came in with an IC50 of 0.13 µM.

`CC(CN(C)C)Nc1nn(C)c(=O)c2cnccc12` (racemic) [Example 13, 1-((1-(dimethylamino)propan-2-yl)amino)-3-methylpyrido[3,4-d]pyridazin-4(3H)-one]: the IC50 was found to be 0.15 µM.

The compound `COC(=O)c1ccc([C@@H]([C@H](C)Nc2nn(C)c(=O)c3cccnc23)N(C)C)cc1` [Example 68, Methyl 4-((1S,2S)-1-(dimethylamino)-2-((6-methyl-5-oxo-5,6-dihydropyrido[2,3-d]pyridazin-8-yl)amino)propyl)benzoate] gave an IC50 of 0.16 µM.

The values above are taken from US10155764B2, “Therapeutic compounds and uses thereof” (GENENTECH, INC., priority 2014, dated 2018).
